Assay results reported in patent US20130165446A1 (priority 2010, published 2013).

molecular target: T1, human recombinant (CHO cell) AT1 receptor (Homo sapiens, UniProt P30556); experiment: Angiotensin II inhibition test (radioligand binding to AT1 receptor); settings: test compound concentration 10^−9 M; radioactive iodine-labeled angiotensin II, 37° C., sixty minutes
T1 construct: expressed in transfected cells; host or cells: CHO cells
T1 sequence (P30556 1-359): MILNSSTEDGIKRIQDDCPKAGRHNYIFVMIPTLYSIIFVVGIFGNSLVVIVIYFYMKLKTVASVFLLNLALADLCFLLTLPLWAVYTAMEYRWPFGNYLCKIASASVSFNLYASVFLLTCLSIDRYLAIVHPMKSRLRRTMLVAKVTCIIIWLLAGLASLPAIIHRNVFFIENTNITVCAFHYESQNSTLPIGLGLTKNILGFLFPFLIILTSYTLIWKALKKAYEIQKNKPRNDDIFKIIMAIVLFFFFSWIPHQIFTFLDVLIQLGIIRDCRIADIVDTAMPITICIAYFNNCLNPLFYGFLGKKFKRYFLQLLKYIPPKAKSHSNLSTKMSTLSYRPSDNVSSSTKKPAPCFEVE
Protocol: A test of inhibition of angiotensin II to human recombinant (CHO cell) AT1 receptor following a method described in the literature (for example, Regul. Pept., vol. 44 (2), page 131 (1993)) was used to measure inhibitory activity to a test compound.
The ligand used was 10^−9 M of a test compound dissolved in 1% DMSO (dimethylsulfoxide). This was reacted with radioactive iodine-labeled angiotensin II at 37° C. for sixty minutes. Taking the inhibition rate of angiotensin II at 10 μM as nonspecific binding, the specific binding rate was calculated by subtracting this nonspecific portion. Table 6 indicates the results (the inhibition rate at test compound concentration: 10^−9 M)

Row | Compound | Inhibition rate (%)
1 | CCCc1nc(CSc2ccc(Oc3ccc4nc(COc5ccc(CC6SC(=O)NC6=O)cc5)n(C)c4c3)cc2)c(C(=O)NC)n1Cc1ccc(-c2ccccc2-c2nnn[nH]2)cc1 (stereo not drawn) [Example 27, N-methyl-(4-[4-{2-[4-(2,4-dioxothiazolidyn-5-ylmethyl)phenoxymethyl]-1-methyl-1H-benzimidazol-6-yloxy}phenylthiomethyl]-2-propyl-1-[2′-(1H-tetrazol-5-yl)biphenyl-4-ylmethyl]-1H-imidazole)-5-carboxamide] | 66%
2 | CCCc1nc2c(C)cc(-c3nc4ccc(N(C)CCOc5ccc6nc(COc7ccc(CC8SC(=O)NC8=O)cc7)n(C)c6c5)cc4n3C)cc2n1Cc1ccc(-c2ccccc2-c2nnn[nH]2)cc1 (stereo not drawn) [Example 3, 5-[4-[6-{2-(N-(1-methyl-2-[4-methyl-2-propyl-1-(2′-(1H-tetrazol-5-yl)biphenyl-4-ylmethyl)-1H-benzimidazol-6-yl]-1H-benzamidazol-6-yl)-N-methylamino)ethoxy}-1-methyl-1H-benzimidazol-2-ylmethoxy]benzyl]thiazolidine-2,4-dione] | 60%
3 | CCCc1nc(COc2ccc(Sc3ccc4nc(COc5ccc(CC6SC(=O)NC6=O)cc5)n(C)c4c3)cc2)c(C(=O)OCC)n1Cc1ccc(-c2ccccc2-c2nnn[nH]2)cc1 (stereo not drawn) [Example 29, 4-[4-{2-[4-(2,4-dixothiazolidin-5-ylmethyl)phenoxymethyl]-1-methyl-1H-benzimidazol-6-ylthio}phenoxymethyl]-2-propyl-1-[2′-(1H-tetrazol-5-yl)biphenyl-4-ylmethyl]-1H-imidazole-5-carboxylic acid ethyl ester] | 40%
4 | CCCc1nc(CSCCNC(=O)CSc2ccc3nc(COc4ccc(CC5SC(=O)NC5=O)cc4)n(C)c3c2)c(C(=O)OCC)n1Cc1ccc(-c2ccccc2-c2nnn[nH]2)cc1 (stereo not drawn) [Example 19] | 65%

same assay, conditions: test compound concentration 10^−9 M; radioactive iodine-labeled angiotensin II, 37° C., sixty minutes; read-out: Inhibition rate (%)

Row | Compound | inhibition at 0.001 µM
5 | CCCc1nc(CNc2ccc(Oc3ccc4nc(COc5ccc(CC6SC(=O)NC6=O)cc5)n(C)c4c3)cc2)c(C(=O)OCC)n1Cc1ccc(-c2ccccc2-c2nnn[nH]2)cc1 (stereo not drawn) [Example 31, 4-{N-[4-[2-(4-[2,4-dioxothiazolidin-5-ylmethyl]phenoxymethyl)-1-methyl-1H-benzimidazol-6-yloxy]phenyl]aminomethyl}-2-propyl-1-[2′-(1H-tetrazol-5-yl)biphenyl-4-ylmethyl]-1H-imidazole-5-carboxylic acid ethyl ester] | 22%
6 | CCCc1nc(CSc2ccc3nc(COc4ccc(CC5SC(=O)NC5=O)cc4)n(C)c3c2)c(C(=O)OCC)n1Cc1ccc(-c2ccccc2-c2nnn[nH]2)cc1 (stereo not drawn) [Example 33, 4-{2-[4-(2,4-dioxothiazolidin-5-ylmethyl)phenoxymethyl]-1-methyl-1H-benzimidazol-6-ylthiomethyl}-2-propyl-1-[2′-(1H-tetrazol-5-yl)biphenyl-4-ylmethyl]-1H-imidazole-5-carboxylic acid ethyl ester] | 87%
7 | CCCc1nc(CSCCSc2ccc(Oc3ccc4nc(COc5ccc(CC6SC(=O)NC6=O)cc5)n(C)c4c3)cc2)c(C(=O)OCC)n1Cc1ccc(-c2ccccc2-c2nnn[nH]2)cc1 (stereo not drawn) [Example 14, 4-[2-[4-{1-methyl-2-(4-(2,4-dioxothiazolidin-5-ylmethyl)phenoxymethyl)-1H-benzimidazol-6-yloxy}phenylthio]ethylthiomethyl]-2-propyl-1-[2′-(1H-tetrazol-5-yl)biphenyl-4-ylmethyl]-1H-imidazole-5-carboxylic acid ethyl ester] | 38%
8 | CCCCc1nc(Cl)c(C[S+]([O-])c2ccc3nc(COc4ccc(CC5SC(=O)NC5=O)cc4)n(C)c3c2)n1Cc1ccc(-c2ccccc2-c2nnn[nH]2)cc1 (stereo not drawn) [Example 23, 5-(4-{6-[2-butyl-4-chloro-1-[2′-(1H-tetrazol-5-yl)biphenyl-4-ylmethyl]-1H-imidazol-5-ylmethylsulfinyl]-1-methyl-1H-benzimidazol-2-ylmethoxy}benzyl)thiazolidine-2,4-dione] | 22%
9 | CCCc1nc(CS(=O)(=O)c2ccc(Oc3ccc4nc(COc5ccc(CC6SC(=O)NC6=O)cc5)n(C)c4c3)cc2)c(C(=O)OCC)n1Cc1ccc(-c2ccccc2-c2nnn[nH]2)cc1 (stereo not drawn) [Example 26, 4-[4-{2-[4-(2,4-dioxothiazolidin-5-ylmethyl)phenoxymethyl]-1-methyl-1H-benzimidazol-6-yloxy}phenylsulfonylmethyl]-2-propyl-1-[2′-(1H-tetrazol-5-yl)biphenyl-4-ylmethyl]-1H-imidazole-5-carboxylic acid ethyl ester] | 44%
10 | CCCc1nc(COc2ccc3nc(COc4ccc(CC5SC(=O)NC5=O)cc4)n(C)c3c2)c(C(=O)OCC)n1Cc1ccc(-c2ccccc2-c2nnn[nH]2)cc1 (stereo not drawn) [Example 7, 4-{2-[4-(2,4-dioxothiazolidin-5-ylmethyl)phenoxymethyl]-1-methyl-1H-benzimidazol-6-yloxymethyl}-2-propyl-1-[2′-(1H-tetrazol-5-yl)biphenyl-4-ylmethyl]-1H-imidazole-5-carboxylic acid ethyl ester] | 52%
11 | CCCc1nc(CSc2ccc3nc(COc4ccc(CC(OCc5ccc(Cl)cc5)C(=O)O)cc4)n(C)c3c2)c(C(=O)OCC)n1Cc1ccc(-c2ccccc2-c2nnn[nH]2)cc1 (stereo not drawn) [Example 35, 3-[4-[6-(5-ethoxycarbonyl-1-{2′-(1H-tetrazol-5-yl)biphenyl-4-ylmethyl}-2-propyl-1H-imidazol-4-ylmethylthio)-1-methyl-1H-benzimidazol-2-ylmethoxy]phenyl]-2-(4-chlorobenzyloxy)propionic acid] | 90%
12 | CCCc1nc(C[S+]([O-])c2ccc(Oc3ccc4nc(COc5ccc(CC6SC(=O)NC6=O)cc5)n(C)c4c3)cc2)c(C(=O)OCC)n1Cc1ccc(-c2ccccc2-c2nnn[nH]2)cc1 (stereo not drawn) [Example 25, 4-[4-{2-[4-(2,4-dioxothiazolidin-5-ylmethyl)phenoxymethyl]-1-methyl-1H-benzimidazol-6-yloxy}phenylsulfinylmethyl]-2-propyl-1-[2′-(1H-tetrazol-5-yl)biphenyl-4-ylmethyl]-1H-imidazole-5-carboxylic acid ethyl ester] | 32%
13 | CCCc1nc(CSc2ccc3nc(COc4ccc(CN(CC(=O)O)C(=O)Oc5ccccc5)cc4)n(C)c3c2)c(C(=O)OCC)n1Cc1ccc(-c2ccccc2-c2nnn[nH]2)cc1 [Example 36, N-[4-{6-[5-ethoxycarbonyl-1-{2′-(1H-tetrazol-5-yl)biphenyl-4-ylmethyl}-2-propyl-1H-imidazol-4-ylmethylthio]-1-methyl-1H-benzimidazol-2-ylmethoxy}phenylmethyl]-N-phenyloxycarbonylaminoacetic acid] | 83%
14 | CCCc1nc(CSc2ccc(Oc3ccc4nc(COc5ccc(CC6SC(=O)NC6=O)cc5)n(C)c4c3)cc2)c(C(=O)OC)n1Cc1ccc(-c2ccccc2-c2nnn[nH]2)cc1 (stereo not drawn) [Example 30, 4-[4-{2-[4-(2,4-dioxothiazolidin-5-ylmethyl)phenoxymethyl]-1-methyl-1H-benzimidazol-6-yloxy}phenylthiomethyl]-2-propyl-1-[2′-(1H-tetrazol-5-yl)biphenyl-4-ylmethyl]-1H-imidazole-5-carboxylic acid methyl ester] | 66%
15 | CCCc1nc2c(C)cc(CN(C)c3ccc4nc(COc5ccc(CC6SC(=O)NC6=O)cc5)n(C)c4n3)cc2n1Cc1ccc(-c2ccccc2C(=O)O)cc1 (stereo not drawn) [Example 10, 4′-[6-(N-{2-[4-(2,4-dioxothiazolidin-5-ylmethyl)phenoxymethyl]-3-methyl-3H-imidazo[4,5-b]pyridin-5-yl}-N-methylaminomethyl)-4-methyl-2-propyl-1H-benzimidazol-1-ylmethyl]biphenyl-2-carboxylic acid] | 41%
16 | CCCc1nc2c(C)cc(C(=O)NCc3ccc(Oc4ccc5nc(COc6ccc(CC7SC(=O)NC7=O)cc6)n(C)c5c4)cc3)cc2n1Cc1ccc(-c2ccccc2-c2nnn[nH]2)cc1 (stereo not drawn) [Example 28, 5-[4-[6-{4-(4-methyl-2-propyl-1-[2′-(1H-tetrazol-5-yl)biphenyl-4-ylmethyl]-1H-benzimidazol-6-ylcarbonylaminomethyl)phenoxy}-1-methyl-1H-benzimidazol-2-ylmethoxy]benzyl]thiazolidin-2,4-dione] | 66%
17 | CCCc1nc2c(C)cc(COc3ccc4nc(COc5ccc(CC6SC(=O)NC6=O)cc5)n(C)c4c3)cc2n1Cc1ccc(-c2ccccc2-c2nnn[nH]2)cc1 (stereo not drawn) [Example 1, 5-(4-{6-[4-methyl-2-propyl-1-[2′-(1H-tetrazol-5-yl)biphenyl-4-ylmethyl]-1H-benzimidazol-6-ylmethoxy]-1-methyl-1H-benzimidazol-2-ylmethoxy}benzyl)thiazolidine-2,4-dione] | 51%
18 | CCCc1nc2c(C)cc(-c3nc4ccc(N(C)CCOc5ccc(CC6SC(=O)NC6=O)cc5)cc4n3C)cc2n1Cc1ccc(-c2ccccc2C(=O)O)cc1 (stereo not drawn) [Example 22, 4′-[6-{6-(N-2-[4-(2,4-dioxothiazolidin-5-ylmethyl)phenoxy]ethyl-N-methylamino)-1-methyl-1H-benzimidazol-2-yl}-4-methyl-2-propyl-1H-benzimidazol-1-ylmethyl]biphenyl-2-carboxylic acid] | 60%
